Source: publication PMC7155212 (Journal of Enzyme Inhibition and Medicinal Chemistry, 2020)

Key:
MAO-B = target: T1, MAO-B (Rattus norvegicus, UniProt P19643); assay: In vitro MAO inhibitory activity (Holt method, crude enzyme from rat liver); format: biochemical, Wistar rat; conditions: rat liver crude enzyme, 4-(trifluoromethyl)benzylamine substrate, mean ± SD (n = 3); read-out: IC50 value MAO-B inhibitory activity
T1 construct: The crude enzyme was extracted from the liver of 200–250 g of Wistar rats; from tissue; host or cells: liver of Wistar rats (crude enzyme)
T1 sequence (P19643 1-520): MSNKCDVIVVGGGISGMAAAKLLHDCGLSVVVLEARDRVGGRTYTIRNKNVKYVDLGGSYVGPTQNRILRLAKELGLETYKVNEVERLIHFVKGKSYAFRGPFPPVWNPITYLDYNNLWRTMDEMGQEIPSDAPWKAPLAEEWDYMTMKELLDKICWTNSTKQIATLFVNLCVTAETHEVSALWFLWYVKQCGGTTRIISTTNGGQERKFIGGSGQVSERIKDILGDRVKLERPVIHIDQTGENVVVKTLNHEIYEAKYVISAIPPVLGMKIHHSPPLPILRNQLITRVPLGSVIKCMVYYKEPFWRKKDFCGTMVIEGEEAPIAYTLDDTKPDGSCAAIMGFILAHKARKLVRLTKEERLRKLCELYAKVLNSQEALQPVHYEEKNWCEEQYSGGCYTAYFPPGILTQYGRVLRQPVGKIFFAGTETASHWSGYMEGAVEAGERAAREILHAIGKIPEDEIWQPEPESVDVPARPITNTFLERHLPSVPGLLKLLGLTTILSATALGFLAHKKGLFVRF
Experimental: The MAO inhibitory activity of the 3-arylbenzofuranone compounds was determined by the method of Holt et al.[17] with slight modifications. The crude enzyme was extracted from the liver of 200–250 g of Wistar rats according to literature methods[18]^,[19]. The crude enzyme protein content was determined by the Bradford method using a Bradford Protein Assay Kit (Beyotime). The assay was performed in 0.2 M potassium phosphate buffer pH 7.6 on 96-well plates in 240 μl total volume. The chromogenic solution containing 1 mM vanillic acid, 0.5 mM 4-aminoantipyrine, and 4 U/ml horseradish peroxidase in 0.2 M potassium phosphate buffer pH 7.6 was mixed anew for each measurement. 40 μL of enzyme solution and 40 μL of sample solution were added to a 96-well plate. The solution was then incubated at 37 °C for 20 min. 120 μL of the 4-(trifluoromethyl) benzylamine solution and 40 μL of the chromogenic solution were added subsequently and incubated at 37 °C for 90 min. The absorbance was measured at 490 nm using a microplate reader, and the inhibition rate of MAO and the IC50 value of each sample were calculated according to the formula. The control group replaced the sample solution with PBS (0.2 M, pH = 7.6), the positive control replaced the sample with the positive drug, and the blank group replaced the substrate with PBS, and each group was measured three times in parallel to average. Monoamine oxidase inhibitory effect (%) = [(AC – AB) – (AS – ASB )]/(AC – AB)×100% where AC is the absorbance of control group; AB is the absorbance of blank group; AS is the absorbance of sample group; ASB is the absorbance of sample blank group.

[1] = In vitro antioxidant activity (DPPH radical scavenging); conditions: DPPH free radical scavenging, 30 min at 37 °C, mean ± SD (n = 3)
Experimental: The assay provides an assessment of the antioxidant activity due to free radical scavenging by measuring hydrogen atom (or one electron) donating activity. DPPH is a purple stable free radical that is reduced to a yellow-coloured diphenylpicryl hydrazine by an antioxidant. The spectrophotometric assay was carried out as described by the literature method with a slight modification. 100 μL of a sample solution was added to 100 μL of DPPH solution. Following 30 min of incubation at 37 °C and protection from light, the absorbance at 517 nm was determined using a microplate reader. Each group was measured three times in parallel to average. IC50 values were calculated. The percentage of DPPH radical scavenging rate of the target compound is calculated as follows: DPPH free radical scavenging effect (%)=[A0 – (A1−A2)]/A0×100% where A0 is the absorbance of blank group; A1 is the absorbance of sample group; A2 is the absorbance of sample blank group.

AChE = AChE (Electrophorus electricus, UniProt O42275); assay: Kinetic characterisation of AChE inhibition (Lineweaver-Burk); format: biochemical; conditions: Lineweaver-Burk plot, Figure 1A
Chain of AChE (O42275 24-633): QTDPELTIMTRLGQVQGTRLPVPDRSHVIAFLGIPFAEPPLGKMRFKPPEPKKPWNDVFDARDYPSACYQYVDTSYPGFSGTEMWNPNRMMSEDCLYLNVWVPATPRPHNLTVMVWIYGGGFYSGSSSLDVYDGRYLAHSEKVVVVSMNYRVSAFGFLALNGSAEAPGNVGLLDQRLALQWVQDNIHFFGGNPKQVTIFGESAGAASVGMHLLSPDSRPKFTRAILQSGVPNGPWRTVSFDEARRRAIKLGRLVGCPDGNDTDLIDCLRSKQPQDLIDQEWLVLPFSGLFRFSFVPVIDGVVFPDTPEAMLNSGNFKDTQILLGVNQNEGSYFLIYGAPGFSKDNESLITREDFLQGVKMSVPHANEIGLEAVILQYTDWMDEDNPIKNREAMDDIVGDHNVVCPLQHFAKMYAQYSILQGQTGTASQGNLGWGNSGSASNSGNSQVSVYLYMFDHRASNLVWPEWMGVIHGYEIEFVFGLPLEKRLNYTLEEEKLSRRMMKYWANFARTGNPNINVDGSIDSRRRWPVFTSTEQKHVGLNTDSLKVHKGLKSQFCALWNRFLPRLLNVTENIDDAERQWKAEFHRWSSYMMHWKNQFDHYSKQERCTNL
Experimental: (§1) To obtain the mechanism of action of 13, reciprocal plots of 1/velocity versus 1/[substrate] were constructed at different concentrations of the substrate […] by using Ellman’s method. Compound 13 was added to the assay solution and preincubated with the enzyme at 37 °C for 5 min, followed by the addition of the substrate. Kinetic characterisation catalysed by enzyme was achieved spectrometrically at 412 nm. A parallel control experiment was carried out without compound 13 in the mixture. Lineweaver–Burk plot was made based on the reaction rate and substrate concentration to determine the type of inhibition of the ChE by the compound.

BuChE = BuChE (Equus caballus, UniProt P81908); assay: Kinetic characterisation of BuChE inhibition (Lineweaver-Burk); format: biochemical; conditions: Lineweaver-Burk plot, Figure 1B
Chain of BuChE (P81908 whole entry): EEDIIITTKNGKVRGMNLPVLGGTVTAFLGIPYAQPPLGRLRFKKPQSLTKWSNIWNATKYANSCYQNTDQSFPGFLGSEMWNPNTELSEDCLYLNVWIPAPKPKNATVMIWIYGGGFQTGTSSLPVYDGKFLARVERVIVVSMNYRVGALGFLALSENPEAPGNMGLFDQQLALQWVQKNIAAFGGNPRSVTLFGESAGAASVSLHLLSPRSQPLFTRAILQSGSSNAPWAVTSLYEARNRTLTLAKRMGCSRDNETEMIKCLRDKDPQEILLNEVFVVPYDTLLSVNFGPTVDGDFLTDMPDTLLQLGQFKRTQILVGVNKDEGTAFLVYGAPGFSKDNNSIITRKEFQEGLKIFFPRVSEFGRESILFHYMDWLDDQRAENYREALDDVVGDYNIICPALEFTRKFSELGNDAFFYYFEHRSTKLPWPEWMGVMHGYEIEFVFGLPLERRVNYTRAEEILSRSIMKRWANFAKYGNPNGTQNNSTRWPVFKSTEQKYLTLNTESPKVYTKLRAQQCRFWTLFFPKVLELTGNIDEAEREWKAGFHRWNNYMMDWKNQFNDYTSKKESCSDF
Experimental: as §1

SMILES: COc1cc2c(cc1O)C(c1ccc(OC)c(OC)c1)C(=O)O2 (stereo not shown) [Compound 13, 5-Hydroxy-6-methoxy-3–(3′,4′-dimethoxyphenyl)-benzofuranone]
- IC50 (MAO-B): 11.2 ± 0.72 µM
- IC50 [1]: 5.33 ± 0.08 µM
- inhibition mode against AChE (AChE): reversible inhibition
- inhibition mode against BuChE (BuChE): reversible inhibition
